Experiments:
[1] = biological target: T1, wild type AXL (wtAXL) receptor tyrosine kinase (Homo sapiens, UniProt P30530); assay: NIH-3T3-AXL cellular tyrosine kinase assay (inhibition of AXL phosphorylation); type: cell-based; conditions: AXL phosphorylation in NIH-3T3-AXL (clone 22) cells, serum-depleted, 2 h with compound, immunoprecipitation / anti-phosphotyrosine blot
T1 construct: WtAXL cDNA was cloned into vector pLXSN(ESK) and transfected into Phoenix E packaging cells; expressed in transfected cells; host or cells: NIH3T3 N7 mouse fibroblasts, retrovirally infected (clone 22)
T1 sequence (P30530 26-894): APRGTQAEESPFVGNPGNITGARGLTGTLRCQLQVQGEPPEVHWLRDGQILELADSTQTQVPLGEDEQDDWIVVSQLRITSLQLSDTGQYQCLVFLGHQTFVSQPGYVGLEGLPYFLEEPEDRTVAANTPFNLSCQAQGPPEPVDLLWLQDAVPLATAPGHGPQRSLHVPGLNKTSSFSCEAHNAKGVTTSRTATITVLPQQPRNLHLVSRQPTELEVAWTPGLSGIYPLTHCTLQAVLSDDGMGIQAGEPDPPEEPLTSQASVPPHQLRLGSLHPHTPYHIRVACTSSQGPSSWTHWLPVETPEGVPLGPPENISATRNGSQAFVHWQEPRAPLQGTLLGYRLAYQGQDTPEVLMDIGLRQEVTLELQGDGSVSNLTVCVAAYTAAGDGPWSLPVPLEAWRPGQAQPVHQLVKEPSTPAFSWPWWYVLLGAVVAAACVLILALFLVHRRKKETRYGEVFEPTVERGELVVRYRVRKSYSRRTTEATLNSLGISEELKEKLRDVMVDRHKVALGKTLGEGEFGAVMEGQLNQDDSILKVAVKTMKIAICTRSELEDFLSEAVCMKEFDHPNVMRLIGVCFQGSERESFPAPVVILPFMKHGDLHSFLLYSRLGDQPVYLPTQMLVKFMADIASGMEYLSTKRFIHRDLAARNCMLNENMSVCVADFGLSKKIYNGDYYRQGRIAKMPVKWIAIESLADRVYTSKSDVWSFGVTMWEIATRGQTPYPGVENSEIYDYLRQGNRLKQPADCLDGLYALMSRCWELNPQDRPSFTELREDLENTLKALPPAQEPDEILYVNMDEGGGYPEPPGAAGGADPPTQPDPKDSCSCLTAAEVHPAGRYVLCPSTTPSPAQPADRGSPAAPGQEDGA
How it was run: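 NIH3T3 clones stably expressing human wtAXL (puromycin-selected) were exposed to serially diluted compounds for 2 h. AXL was immunoprecipitated from lysates with anti-AXL antibody, and phosphorylation detected by anti-phosphotyrosine (4G10) western blot with ECL.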

Row | SMILES | IC50 [1] [nM] | melting point [°C]
1 | COc1cc2c(Oc3ccc(NS(=O)(=O)c4ccc(Cl)cc4F)cc3F)ccnc2cc1OCCCN1CCCC(C)C1 (centres unmarked) [Example D24, 4-Chloro-2-fluoro-N-(3-fluoro-4-{6-methoxy-7-[3-(3-methyl-piperidin-1-yl)-propoxy]-quinolin-4-yloxy}-phenyl)-benzenesulfonamide] | 181 | 136 to 138
2 | CCCCS(=O)(=O)Nc1ccc(Oc2ccnc3cc(OCCCN4CCCC(C)C4)c(OC)cc23)c(F)c1 (centres unmarked) [Example D25, Butane-1-sulfonic acid (3-fluoro-4-{6-methoxy-7-[3-(3-methyl-piperidin-1-yl)-propoxy]-quinolin-4-yloxy}-phenyl)-amide] | 378 | 104 to 106
3 | COc1cc2c(Oc3ccc(NS(=O)(=O)c4ccccc4Br)cc3F)ccnc2cc1OCCN1CCOCC1 [Example D26, 2-Bromo-N-{3-fluoro-4-[6-methoxy-7-(2-morpholin-4-yl-ethoxy)-quinolin-4-yloxy]-phenyl}-benzenesulfonamide] | 150 | 175 to 177
4 | COc1cc2c(Oc3ccc(NS(=O)(=O)c4ccccc4C#N)cc3F)ccnc2cc1OCCN1CCOCC1 [Example D27, 2-Cyano-N-{3-fluoro-4-[6-methoxy-7-(2-morpholin-4-yl-ethoxy)-quinolin-4-yloxy]-phenyl}-benzenesulfonamide] | 783 | 193 to 196
5 | COc1cc2c(Oc3ccc(NS(=O)(=O)c4ccc(F)cc4F)cc3F)ccnc2cc1OCCN1CCOCC1 [Example D28, 2,4-Difluoro-N-{3-fluoro-4-[6-methoxy-7-(2-morpholin-4-yl-ethoxy)-quinolin-4-yloxy]-phenyl}-benzenesulfonamide] | > 1000 | 189 to 191
6 | COc1cc2c(Oc3ccc(NS(=O)(=O)c4cccc(-c5ccccc5)c4)cc3F)ccnc2cc1OCCCN1CCC(C)CC1 [Example D29, Biphenyl-3-sulfonic acid (3-fluoro-4-{6-methoxy-7-[3-(4-methyl-piperidin-1-yl)-propoxy]-quinolin-4-yloxy}-phenyl)-amide] | 178 | 196 to 198
7 | COc1cc2c(Oc3ccc(NS(=O)(=O)c4ccccc4F)cc3F)ccnc2cc1OCCCN1CCCC(C)C1 (centres unmarked) [Example D30, 2-Fluoro-N-(3-fluoro-4-{6-methoxy-7-[3-(3-methyl-piperidin-1-yl)-propoxy]-quinolin-4-yloxy}-phenyl)-benzenesulfonamide] | 82 | 102 to 106
8 | COc1cc2c(Oc3ccc(NS(=O)(=O)c4ccccc4C#N)cc3F)ccnc2cc1OCCCN1CCCC(C)C1 (centres unmarked) [Example D31, 2-Cyano-N-(3-fluoro-4-{6-methoxy-7-[3-(3-methyl-piperidin-1-yl)-propoxy]-quinolin-4-yloxy}-phenyl)-benzenesulfonamide] | 323 | 131 to 132
9 | COc1cc2c(Oc3ccc(NS(=O)(=O)c4c(F)cccc4F)cc3F)ccnc2cc1OCCCN1CCCC(C)C1 (centres unmarked) [Example D32, 2,6-Difluoro-N-(3-fluoro-4-{6-methoxy-7-[3-(3-methyl-piperidin-1-yl)-propoxy]-quinolin-4-yloxy}-phenyl)-benzenesulfonamide] | 42 | 117 to 119
10 | COc1cc2c(Oc3ccc(NS(=O)(=O)c4ccccc4OC(F)(F)F)cc3F)ccnc2cc1OCCCN1CCC(C)CC1 [Example D33, N-(3-Fluoro-4-{6-methoxy-7-[3-(4-methyl-piperidin-1-yl)-propoxy]-quinolin-4-yloxy}-phenyl)-2-trifluoromethoxy-benzenesulfonamide] | 68 | 206 to 208

Reference: patent US9206130B2, “Quinoline derivatives as AXL kinase inhibitors” (Max-Planck-Gesellschaft zur Förderung der Wissenschaften …, priority 2008, dated 2015)
